Experimental data from article PMC10641814 (Journal of Medicinal Chemistry, 2023).

Key:
5-HT2CR = target: T1, 5-HT2CR (Homo sapiens, UniProt P28335); test: 5-HT2CR binding ([3H]-mesulergine), Eurofins; settings: read-out: serotonin 5-HT2C % inhibition at 1 microM
T1 sequence (P28335 33-458): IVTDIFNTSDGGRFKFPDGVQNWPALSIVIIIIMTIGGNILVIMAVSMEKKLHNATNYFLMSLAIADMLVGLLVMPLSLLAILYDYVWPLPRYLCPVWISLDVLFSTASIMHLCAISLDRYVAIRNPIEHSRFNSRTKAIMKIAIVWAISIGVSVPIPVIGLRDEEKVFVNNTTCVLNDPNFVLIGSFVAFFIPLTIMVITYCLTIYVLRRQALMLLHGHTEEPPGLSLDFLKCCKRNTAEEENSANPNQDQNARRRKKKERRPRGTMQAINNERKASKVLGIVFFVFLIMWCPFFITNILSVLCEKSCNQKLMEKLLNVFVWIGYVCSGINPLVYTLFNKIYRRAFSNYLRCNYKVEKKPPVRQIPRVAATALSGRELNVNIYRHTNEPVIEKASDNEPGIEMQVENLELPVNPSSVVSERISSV
Description: (§1) The results were expressed as the %
(§2) www.eurofinsdiscovery.com.

[1] = target: serotonin transporter SERT (Homo sapiens, UniProt P31645); test: SERT binding ([3H]-imipramine), Eurofins
Chain of serotonin transporter SERT (P31645 whole entry): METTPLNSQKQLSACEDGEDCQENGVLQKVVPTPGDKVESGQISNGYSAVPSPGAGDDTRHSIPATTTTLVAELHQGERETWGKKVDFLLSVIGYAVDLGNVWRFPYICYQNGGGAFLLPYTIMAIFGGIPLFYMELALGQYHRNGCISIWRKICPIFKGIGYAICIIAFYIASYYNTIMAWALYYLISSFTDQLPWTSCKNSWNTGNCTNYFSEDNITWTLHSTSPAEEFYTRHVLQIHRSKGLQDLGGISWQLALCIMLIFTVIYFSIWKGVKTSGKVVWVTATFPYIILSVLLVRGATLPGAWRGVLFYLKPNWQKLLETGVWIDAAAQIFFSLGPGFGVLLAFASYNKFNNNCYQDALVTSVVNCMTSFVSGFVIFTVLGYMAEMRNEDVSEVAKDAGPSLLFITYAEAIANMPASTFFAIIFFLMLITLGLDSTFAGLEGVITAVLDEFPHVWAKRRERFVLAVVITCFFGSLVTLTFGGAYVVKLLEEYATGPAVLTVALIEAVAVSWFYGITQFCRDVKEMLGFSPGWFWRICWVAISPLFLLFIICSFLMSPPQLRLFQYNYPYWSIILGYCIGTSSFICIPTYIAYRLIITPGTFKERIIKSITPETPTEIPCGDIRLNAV
Description: as §1, §2

5-HT2AR = 5-HT2AR (Homo sapiens, UniProt P28223); test: 5-HT2AR binding ([3H]-ketanserine), Eurofins; settings: read-out: serotonin 5-HT2A % inhibition at 1 microM
Chain of 5-HT2AR (P28223 whole entry): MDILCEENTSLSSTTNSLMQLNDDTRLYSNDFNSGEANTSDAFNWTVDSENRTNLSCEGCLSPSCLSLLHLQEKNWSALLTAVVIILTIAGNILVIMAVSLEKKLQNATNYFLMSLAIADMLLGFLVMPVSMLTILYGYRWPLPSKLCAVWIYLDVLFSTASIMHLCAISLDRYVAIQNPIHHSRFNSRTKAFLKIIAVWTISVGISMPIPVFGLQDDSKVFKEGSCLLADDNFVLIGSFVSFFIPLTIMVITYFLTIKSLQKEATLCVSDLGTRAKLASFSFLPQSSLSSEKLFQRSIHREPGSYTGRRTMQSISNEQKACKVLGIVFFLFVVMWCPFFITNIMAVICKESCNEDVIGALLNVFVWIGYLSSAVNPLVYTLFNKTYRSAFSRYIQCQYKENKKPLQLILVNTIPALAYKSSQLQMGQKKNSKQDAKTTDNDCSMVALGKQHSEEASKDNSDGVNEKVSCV
Description: as §1, §2

`Cl.Clc1cccc(Cn2ccc3c(N4CCNCC4)nc4ccccc4c32)c1` [PZ-1922, 1-(3-Chlorobenzyl)-4-(piperazin-1-yl)-1H-pyrrolo[3,2-c]quinoline Hydrochloride] showed an inhibition at 1 µM (5-HT2CR) of 4%, a solubility (Solubility in water) of 325 mg/mL and an inhibition at 1 µM [1] of 1.8%. For the same compound, the inhibition at 1 µM (5-HT2AR) was 5%.
